# Reference: US6737425B1, “N,N-substituted cyclic amine derivatives” (Eisai Co., Ltd., priority 1998, dated 2004)
# Assays:
# mice in a formalin test = test: Antalgic effect (II) on mice in a formalin test (comparison with morphine and indomethacin); assay type: in vivo; details: for average left hind leg-licking time, Mean: formalin 5 minutes later
# Description: Antalgic Effect (II) on Mice in a Formalin Test
# The typical example of the compound of the present invention (the compound in Example 1) was compared with morphine and indomethacin in the same manner as in Pharmacological Experimental Example 5 above.
# 20.4 mg of the compound of the present invention was weighed, and 10.2 ml of 5.28% mannitol was added thereto to prepare 2 mg/ml (20 mg/kg) solution. Then, 3.8 ml of 5.28% mannitol was added to 3.8 ml of the 2 mg/ml solution to prepare 1 mg/ml (10 mg/kg) solution. Finally, 2.5 ml of 5.28% mannitol was added to 2.5 ml of the 1 mg/ml solution to prepare 0.5 mg/ml (5 mg/kg) solution. The test compound was weighed and prepared on the day when the experiment was conducted.
# b-1) Morphine 17.0 mg of morphine purchased as a reagent was weighed, and 5.67 ml physiological saline was added thereto to form 3 mg/ml (30 mg/kg) solution. Then, 2.6 ml physiological saline was added to 1.3 ml of the 3 mg/ml solution to prepare 1 mg/ml (10 mg/kg) solution. Finally, 2.1 ml physiological saline was added to 0.9 ml of the 1 mg/ml solution to prepare 0.3 mg/ml (3 mg/kg) solution. The test compound was weighed and prepared on the day when the experiment was conducted.
# 12.9 mg of indomethacin purchased as a reagent was weighed, and 12.9 ml of 0.5% methyl cellulose (MC) was added thereto to form 1 mg/ml (10 mg/kg) suspension. Then, 2.24 ml of 0.5% MC was added to 0.96 ml of the 1 mg/ml suspension to prepare 0.3 mg/ml (3 mg/kg) suspension. Finally, 1.6 ml of 0.5% MC was added to 0.8 ml of the 0.3 mg/ml suspension to prepare 0.1 mg/ml (1 mg/kg) suspension. The test compound was weighed and prepared on the day when the experiment was conducted.
# The treatment group by the compound of the present invention consisted of 4 groups in total, that is, a control group, a 5 mg/kg compound administration group, a 10 mg/kg compound administration group, and a 20 mg/kg compound administration group, and each group consisted of 5 animals.
# The control group was given 0.1 ml of 5.28% mannitol per 10 g of the body weight via the tail vein. The compound of the present invention was administered via the tail vein at each concentration (0.5 mg/ml, 1 mg/ml, and 2 mg/ml) in an volume of 0.1 ml per 10 g of the body weight into the 5 mg/kg group, 10 mg/kg group and 20 mg/kg group, respectively.
# The treatment group by morphine consisted of 4 groups in total, that is, a control group, a 3 mg/kg morphine administration group, a 10 mg/kg morphine administration group, and a 30 mg/kg morphine administration group, and each group consisted of 5 animals.
# The control group was orally given 0.1 ml of physiological saline per 10 g of the body weight. Morphine was orally administered at each concentration (0.3 mg/ml, 1 mg/ml, and 3 mg/ml) in a volume of 0.1 ml per 10 g of the body weight into the 3 mg/kg group, 10 mg/kg group and 30 mg/kg group, respectively.
# The treatment group by indomethacin consisted of 4 groups in total, that is, a control group, a 1 mg/kg indomethacin administration group, a 3 mg/kg indomethacin administration group, and a 10 mg/kg indomethacin administration group, and each group consisted of 5 animals.
# The control group was orally given 0.1 ml of 0.5% MC per 10 g of the body weight. Indomethacin was orally administered at each concentration (0.1 mg/ml, […], and 1 mg/ml) in a volume of 0.1 ml per 10 g of the body weight into the 1 mg/kg group, 3 mg/kg group and 10 mg/kg group, respectively.
# 5.28% mannitol was administered via the tail vein into each group given the compound of the present invention or into the control group, and the animals were placed in a transparent plastic observation cage. 5 minutes later, 20 μl of 3% formalin was subcutaneously administered into the bottom of the left hind leg of each mouse. The duration of the behavior of mouse's licking the left hind leg after administration of formalin was measured for 5 minutes and used as an indication of pain. The duration was expressed in second. […]
# [1] = tested on: voltage-dependent calcium channels (cerebral cortex synaptosome); test: Measurement of voltage-dependent calcium channel activity by the use of a fluorescent pigment (fura 2); assay type: cell-based; details: rat cerebral cortex synaptosome, fura 2, KCl stimulation, compound incubated 10 minutes
# Summary of the method: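 Synaptosomes were prepared from rat cerebral cortex by sucrose homogenisation and 0.8 M sucrose gradient centrifugation. They were loaded with fura-2/AM by mixing with an equal volume of 4 μM loading solution for 40 min at room temperature. Verapamil hydrochloride served as the reference compound.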
structure (smiles),measurement,setting,value
"CC(C)C(C#N)(CCCN1CCN(CCOc2ccc(F)cc2)CC1)c1ccccc1 (centres unmarked) [Example 1, 1-[(4-Cyano-5-methyl-4-phenyl)hexyl]-4-[2-(4-fluorophenoxy)ethyl]piperazine]","average left hind leg-licking time, Mean",mice in a formalin test; 5 mg/kg i.v. (tail vein),49.4 s
same,"average left hind leg-licking time, Mean",mice in a formalin test; 10 mg/kg i.v. (tail vein),23.6 s
same,"average left hind leg-licking time, Mean",mice in a formalin test; 20 mg/kg i.v. (tail vein),2.2 s
same,antalgic effect in the formalin test,mice in a formalin test; overall conclusion of the comparison,excellent effect similar to that of morphine
same,IC50,[1],5.9 µM
